Legend:
[1] = test system: A549-ACE2 infected with SARS-CoV-2; experiment: cell count relative to DMSO; higher = less toxic; details: 24 h
A549-ACE2 [2] = experiment: phospholipidosis EC50; higher = less potent phospholipidosis inducer
Calu-3 [3] = experiment: cell viability relative to DMSO; higher = less toxic; details: 72 h
HepG2 [4] = experiment: as above; details: 72 h
Vero E6 [5] = experiment: as above; details: 72 h
U2OS [6] = experiment: as above; details: 72 h
Caco-2 [7] = experiment: as above; details: 72 h
Calu-3 [8] = experiment: drug sensitivity score (DSS) for viability; higher = more toxic; extreme values may be limits of the assay; details: 72 h
HepG2 [9] = experiment: as above; details: 72 h
Vero E6 [10] = experiment: as above; details: 72 h
U2OS [11] = experiment: as above; details: 72 h
Caco-2 [12] = experiment: as above; details: 72 h
[13] = test system: A549-ACE2 infected with SARS-CoV-2; experiment: morphology score (similarity to uninfected cells); higher = more like uninfected cells; details: 24 h
Calu-3 [14] = experiment: relative viability EC50 (midpoint between 100% and the lowest measured viability); higher = less toxic; details: 72 h
HepG2 [15] = experiment: as above; details: 72 h
Vero E6 [16] = experiment: as above; details: 72 h
U2OS [17] = experiment: as above; details: 72 h
Caco-2 [18] = experiment: as above; details: 72 h
A549-ACE2 [19] = experiment: drug-induced phospholipidosis relative to tamoxifen; higher = more phospholipidosis
[20] = test system: A549-ACE2 infected with SARS-CoV-2; experiment: SARS-CoV-2 infection rate relative to DMSO; higher = more infection; details: 24 h

FC(F)(F)c1cc(CO[C@H]2CCCN[C@H]2c2ccccc2)cc(C(F)(F)F)c1
Details	SARS-CoV-2 infection rate [%]	cell count [%]	cell viability [%]	morphology score	phospholipidosis EC50 [µM]
A549-ACE2 [2], 24 h	–	–	–	–	2.17
A549-ACE2 [2], 48 h	–	–	–	–	2.92
A549-ACE2 [2], 72 h	–	–	–	–	3.8
Caco-2 [7], 1 nM	–	–	108	–	–
Caco-2 [7], 10 nM	–	–	106	–	–
Caco-2 [7], 100 nM	–	–	91.1	–	–
Caco-2 [7], 1000 nM	–	–	87.2	–	–
Caco-2 [7], 10000 nM	–	–	83.6	–	–
Calu-3 [3], 1 nM	–	–	97.4	–	–
Calu-3 [3], 10 nM	–	–	97.6	–	–
Calu-3 [3], 100 nM	–	–	102	–	–
Calu-3 [3], 1000 nM	–	–	101	–	–
Calu-3 [3], 10000 nM	–	–	18.1	–	–
HepG2 [4], 1 nM	–	–	104	–	–
HepG2 [4], 10 nM	–	–	97.9	–	–
HepG2 [4], 100 nM	–	–	97.8	–	–
HepG2 [4], 1000 nM	–	–	107	–	–
HepG2 [4], 10000 nM	–	–	88.4	–	–
U2OS [6], 1 nM	–	–	104	–	–
U2OS [6], 10 nM	–	–	101	–	–
U2OS [6], 100 nM	–	–	105	–	–
U2OS [6], 1000 nM	–	–	96.2	–	–
U2OS [6], 10000 nM	–	–	92.1	–	–
Vero E6 [5], 1 nM	–	–	96.7	–	–
Vero E6 [5], 10 nM	–	–	102	–	–
Vero E6 [5], 100 nM	–	–	102	–	–
Vero E6 [5], 1000 nM	–	–	99.1	–	–
Vero E6 [5], 10000 nM	–	–	89.4	–	–
[1], 0.3 µM	–	100	–	–	–
[1], 3 µM	–	113	–	–	–
[1], 10 µM	–	121	–	–	–
[1], 30 µM	–	69	–	–	–
[13], 0.3 µM	–	–	–	0.12	–
[13], 3 µM	–	–	–	0.72	–
[13], 10 µM	–	–	–	0.92	–
[13], 30 µM	–	–	–	0.01	–
[20], 0.3 µM	95	–	–	–	–
[20], 3 µM	57	–	–	–	–
[20], 10 µM	16	–	–	–	–
[20], 30 µM	42	–	–	–	–

Details	drug sensitivity score	relative viability EC50 [µM]
Caco-2 [12]	2.5	–
Caco-2 [18]	–	> 10
Calu-3 [8]	4.4	–
Calu-3 [14]	–	3.27
HepG2 [9]	0	–
HepG2 [15]	–	> 10
U2OS [11]	0	–
U2OS [17]	–	> 10
Vero E6 [10]	0	–
Vero E6 [16]	–	> 10

drug-induced phospholipidosis [%], A549-ACE2 [19]
Details	0.3 µM	0.833333 µM	3.33333 µM	6.66667 µM	10 µM
24 h	3.76	11.4	79.2	99.1	104
48 h	4.92	7.68	61.5	89.2	97.2
72 h	5.63	5.43	40.2	85	93

O=C(CN1C2=NCCN2c2ccccc21)c1ccc(-c2ccccc2)cc1
Details	SARS-CoV-2 infection rate [%]	cell count [%]	cell viability [%]	morphology score	phospholipidosis EC50 [µM]
A549-ACE2 [2], 24 h	–	–	–	–	5.39
A549-ACE2 [2], 48 h	–	–	–	–	7.27
A549-ACE2 [2], 72 h	–	–	–	–	8.25
Caco-2 [7], 1 nM	–	–	99.6	–	–
Caco-2 [7], 10 nM	–	–	102	–	–
Caco-2 [7], 100 nM	–	–	110	–	–
Caco-2 [7], 1000 nM	–	–	102	–	–
Caco-2 [7], 10000 nM	–	–	88.8	–	–
Calu-3 [3], 1 nM	–	–	94.5	–	–
Calu-3 [3], 10 nM	–	–	99.2	–	–
Calu-3 [3], 100 nM	–	–	92.9	–	–
Calu-3 [3], 1000 nM	–	–	100	–	–
Calu-3 [3], 10000 nM	–	–	82.2	–	–
HepG2 [4], 1 nM	–	–	98.7	–	–
HepG2 [4], 10 nM	–	–	97.4	–	–
HepG2 [4], 100 nM	–	–	95.1	–	–
HepG2 [4], 1000 nM	–	–	98.4	–	–
HepG2 [4], 10000 nM	–	–	74.1	–	–
U2OS [6], 1 nM	–	–	108	–	–
U2OS [6], 10 nM	–	–	104	–	–
U2OS [6], 100 nM	–	–	99.1	–	–
U2OS [6], 1000 nM	–	–	99.3	–	–
U2OS [6], 10000 nM	–	–	90.6	–	–
Vero E6 [5], 1 nM	–	–	103	–	–
Vero E6 [5], 10 nM	–	–	99.5	–	–
Vero E6 [5], 100 nM	–	–	98.8	–	–
Vero E6 [5], 1000 nM	–	–	95.4	–	–
Vero E6 [5], 10000 nM	–	–	83.4	–	–
[1], 0.3 µM	–	101	–	–	–
[1], 3 µM	–	114	–	–	–
[1], 10 µM	–	118	–	–	–
[1], 30 µM	–	106	–	–	–
[13], 0.3 µM	–	–	–	-0.08	–
[13], 3 µM	–	–	–	0.58	–
[13], 10 µM	–	–	–	0.78	–
[13], 30 µM	–	–	–	-0.05	–
[20], 0.3 µM	105	–	–	–	–
[20], 3 µM	67	–	–	–	–
[20], 10 µM	14	–	–	–	–
[20], 30 µM	51	–	–	–	–

Details	drug sensitivity score	relative viability EC50 [µM]
Caco-2 [12]	0	–
Caco-2 [18]	–	> 10
Calu-3 [8]	0.4	–
Calu-3 [14]	–	> 10
HepG2 [9]	1.2	–
U2OS [11]	0	–
U2OS [17]	–	> 10
Vero E6 [10]	0.8	–
Vero E6 [16]	–	> 10

drug-induced phospholipidosis [%], A549-ACE2 [19]
Details	0.3 µM	0.833333 µM	3.33333 µM	6.66667 µM	10 µM	30 µM
24 h	2.47	0.7	26.4	46.9	91.5	84
48 h	4.83	1.26	21.7	49.5	106	117
72 h	2.9	-4.28	15	36.6	99.6	–

— the supplement of paper PMC13380429
